Assay results published in US7776827B2 (ImmuneRegen Biosciences, Inc., priority 2007, dated 2010).

How the values were obtained:
Type in all cases: cell-based
BFU-E = test: Colony forming unit (CFU) assay, human bone marrow cells (Example 6); details: FIG. 1; control = zero level
Excerpt: (§1) As stem cells differentiate in response to growth factors, they form a colony of cells with distinct morphologies that can be visualized using a microscope. This study examined the formation of three different progenitor cell populations, erythrocytes, platelets and granulocytes/macrophages.
(§2) Bone marrow aspirates were obtained from three healthy donors between 18 and 35 years of age following appropriate guidelines and protocols. Bone marrow mononuclear cells were isolated using a Ficoll-Hypaque density gradient, separating red blood cells from the others. Cells from each donor were processed independently and used for setting up individual experiments to assess the effects, if any, of donor variability.
(§3) Cells (1×10^5) were plated in duplicate onto 35 mm tissue culture plates for each condition tested and set up as described in Rameshwar et al. 1993, Blood. 81:2, 391-398. Erythroid and granulocyte/macrophage cultures were plated using methylcellulose and megakaryocyte cultures (platelet precursors) used a collagen-based support (StemCell Technologies, Vancouver, Canada, catalogue #04973). […] CP 99,994 (Pfizer) was used as a neurokinin-1 receptor antagonist and SR 48968 (Sanofi) was used as a neurokinin-2 receptor antagonist. […]

CFU-E = test: as above; details: FIG. 2; control = zero level
Excerpt: as §1, §2, §3

[1] = tested on: CFU-Mk (platelet precursors); test: as above; details: in the presence of substance P
Excerpt: as §1, §2
Cells (1×10^5) were plated in duplicate onto 35 mm tissue culture plates for each condition tested and set up as described in Rameshwar et al. 1993, Blood. 81:2, 391-398. Erythroid and granulocyte/macrophage cultures were plated using methylcellulose and megakaryocyte cultures (platelet precursors) used a collagen-based support (StemCell Technologies, Vancouver, Canada, catalogue #04973). […] CP 99,994 (Pfizer) was used as a neurokinin-1 receptor antagonist and SR 48968 (Sanofi) was used as a neurokinin-2 receptor antagonist.
Cultures were set up with limited cytokines and growth factors which would promote differentiation of one progenitor per plate. […]

[2] = tested on: human bone marrow-derived hematopoietic cell populations; test: CFC differentiation and ATP proliferation assays, overall statements (Example 4)
Protocol: The compound was dissolved in 1 ml of Iscove's Modified Dulbecco's Medium (IMDM) and a serial dose response prepared in single log doses so that the final dose in culture ranged from 1 nM to 1×10^−16 M. All working dilutions were performed in IMDM.
Starting with human bone marrow aspirate, the mononuclear cell (MNC) fraction was separated from the whole bone marrow using Ficoll-Paque density gradient centrifugation. […] The cell concentration was adjusted so that the final cell concentration in culture was 10,000 cells/well.
Human bone marrow MNC was dissolved in IMDM and cultured at a concentration of 10,000 cell/well in a CAMEO™-96 Master Mix (HemoGenix, Inc., Colorado Springs, Colo.). […]
Prior to processing all 96-well plates, the total colony counts/well were manually enumerated by microscopy. The mean, standard deviation and percent coefficient of variation was calculated for all groups, transposed and plotted. The intracellular ATP (iATP) concentration was measured after manual enumeration. The output of the luminometer is non-standardized Relative Luminescence Units (RLU). […] This allowed the RLU values to be automatically calculated into standardized ATP (μM) units. For both the RLU and ATP values derived from each well, the luminometer software calculated the mean, standard deviation and percent coefficient of variation.

[3] = tested on: seven human-derived hematopoietic cell populations; test: CFC assay, three donors, overall statements (Example 5); details: highest doses (1 nM)
Protocol: Compound was dissolved in 1 ml of Iscove's Modified Dulbecco's Medium (IMDM) and a serial dose response was prepared in single log doses so that the final dose in culture ranged from 1 nanoMolar (nM) to 1×10^−16 M. All working dilutions were performed in IMDM. Cell cultures from each donor were started at different times and a fresh solution of HOMSPERA® was prepared for each individual experiment.
Starting with human bone marrow aspirate, the mononuclear cell (MNC) fraction from each aspirate was separated from whole bone marrow using Ficoll-Paque density gradient centrifugation.
The colony-forming cell (CFC) assay was performed using optimal growth factor/cytokine concentrations. The reagents and conditions were similar to those used in Example 4, except that no ATP measurements were performed. The MNC fraction from each bone marrow donor was dissolved in IMDM and cultured at a concentration of 5,000 cells/well in a Culture Master Mix (HemoGenix, Inc., Colorado Springs, Colo.). […]
The mean, standard deviation and percent coefficient of variation was calculated for all groups, transposed and plotted as a function of donor. The percent from control values were calculated and also plotted as a function of donor. […]

“Arg Pro Lys Pro Gln Gln Phe Phe Gly Leu Met [substance P]” was tested, and the “BFU-E colony formation, increase from control values” (BFU-E) was about 60% and the “CFU-E colony formation, enhancement from control values” (CFU-E) was “about 70%”.

With `CC(=O)NC1(c2ccccc2)CCN(CC[C@H](CN(C)C(=O)c2ccccc2)c2ccc(Cl)c(Cl)c2)CC1` [SR48968] the “effect of receptor antagonist on substance P stimulation of platelet colony formation” value [1] was “showed no effect on substance P activity in enhancing platelet colony formation”.

`COc1ccccc1CN[C@H]1CCCN[C@H]1c1ccccc1` [CP-99,994] was tested, and the “effect of receptor antagonist on substance P stimulation of platelet colony formation” value [1] was “blocks the stimulatory activity of substance P”.

With `CC(C)C[C@H](NC(=O)CN(C)C(=O)[C@H](Cc1ccccc1)NC(=O)[C@H](Cc1ccccc1)NC(=O)[C@H](CCC(N)=O)NC(=O)[C@H](CCC(N)=O)NC(=O)[C@@H]1CCCN1C(=O)[C@H](CCCCN)NC(=O)[C@@H]1CCCN1C(=O)[C@@H](N)CCCNC(=N)N)C(=O)N[C@@H](CCS(C)(=O)=O)C(N)=O` [HOMSPERA®] the toxicity ([2]; B-CFC and T-CFC, levels tested) was “do not demonstrate toxicity at the levels tested”, the cytotoxicity ([2]; most of populations, 14 days, 1 nM to 1×10^−16 M) was “apparent absence of distinct cytotoxicity” and the toxicity [3] was “no apparent toxicity at the highest doses”.
